Test results: US8618163B2, “Derivatives of cycloalkyl- and cycloalkenyl-1,2-dicarboxylic acid compounds having formyl peptide receptor like-1 (FPRL-1) agonist or antagonist activity” (Allergan, Inc., priority 2010, dated 2013)
Like-named read-outs stand apart in the source and are kept apart here.

Columns and labels:
FPR1 = target: T1, FPR1 (Homo sapiens, UniProt P21462); assay: compound-induced calcium activity on FLIPR Tetra in HEK-Gqi5 cells stable expressing FPR1; type: cell-based; set-up: FPR1 (rel. eff.): scale not given here
T1 construct: expressed in transfected cells; host or cells: HEK-Gqi5 (HEK cells with chimeric G protein Gqi5)
T1 sequence (P21462 1-350): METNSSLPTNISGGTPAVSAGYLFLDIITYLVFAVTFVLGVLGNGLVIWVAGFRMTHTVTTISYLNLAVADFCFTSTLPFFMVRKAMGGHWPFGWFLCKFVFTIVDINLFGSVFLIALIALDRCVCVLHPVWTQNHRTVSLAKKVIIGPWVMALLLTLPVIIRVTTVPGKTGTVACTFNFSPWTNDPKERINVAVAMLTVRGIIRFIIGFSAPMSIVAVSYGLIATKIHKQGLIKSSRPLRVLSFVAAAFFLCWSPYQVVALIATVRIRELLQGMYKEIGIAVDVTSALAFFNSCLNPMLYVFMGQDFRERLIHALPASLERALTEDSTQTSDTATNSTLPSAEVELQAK
Description: (§1) CHO-Gal6 cells stably expressing FPRL1 were cultured in (F12, 10% FBS, 1% PSA, 400 μg/ml geneticin and 50 μg/ml hygromycin) and HEK-Gqi5 cells stable expressing FPR1 were cultured in (DMEM high glucose, 10% FBS, 1% PSA, 400 μg/ml geneticin and 50 μg/ml hygromycin). In general, the day before the experiment, 18,000 cells/well were plated in a 384-well clear bottom poly-d-lysine coated plate. The following day the screening compound-induced calcium activity was assayed on the FLIPR^Tetra. The drug plates were prepared in 384-well microplates using the EP3 and the MultiPROBE robotic liquid handling systems. Compounds were tested at concentrations ranging from 0.61 to 10,000 nM. Results are expressed as EC50 (nM) and efficacy values.

FPRL1 = target: T2, FPRL1 (Homo sapiens, UniProt P25090); assay: compound-induced calcium activity on FLIPR Tetra in CHO-Gal6 cells stably expressing FPRL1; type: cell-based; conditions: for EC50: read-out: FPRL1 EC50; for FPRL1 (rel. eff.): relative efficacy
T2 construct: expressed in transfected cells; host or cells: CHO-Gal6 (CHO cells with G alpha 16)
T2 sequence (P25090 1-351): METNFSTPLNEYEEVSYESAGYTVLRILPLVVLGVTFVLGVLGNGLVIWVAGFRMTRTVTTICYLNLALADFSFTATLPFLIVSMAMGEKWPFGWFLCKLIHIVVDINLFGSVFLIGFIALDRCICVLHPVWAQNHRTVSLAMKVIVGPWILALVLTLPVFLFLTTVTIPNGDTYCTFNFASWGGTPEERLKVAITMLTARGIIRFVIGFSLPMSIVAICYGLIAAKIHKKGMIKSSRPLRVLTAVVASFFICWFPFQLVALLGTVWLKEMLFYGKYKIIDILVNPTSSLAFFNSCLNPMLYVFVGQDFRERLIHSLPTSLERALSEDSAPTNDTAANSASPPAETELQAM
Description: as §1

[1] = calcium, FLIPR Tetra, tested 0.61 to 10,000 nM
[2] = class symbol NA, read-out: FPR1 EC50 (NA = Not Active)

Row | Structure (SMILES) | EC50 (FPR1; cells printed in μM, read-out: FPR1 EC50) [µM] | FPR1 (rel. eff.) (FPR1; relative efficacy, calcium, FLIPR Tetra) | EC50 (FPRL1; [1]) [µM] | FPRL1 (rel. eff.) (FPRL1; calcium, FLIPR Tetra) | EC50 (FPR1; [2]) [µM] | EC50 (FPRL1; in μM) [µM]
1 | NC(=O)C1C(C(=O)Nc2ccc(Br)cc2)C2CCC1C21CC1 (racemic) [Compound 46B] | > 40 | 0.30 | < 0.001 | 0.91 |  | 
2 | CCc1ccc(NC(=O)C2C(C(N)=O)C3C=CC2C32CC2)cc1 (racemic) [Compound 48, (+/−)-(1R,4S,5R,6S)—N-5-(4-Ethylphenyl)spiro[bicyclo[2.2.1]hept[2]ene-7,1′-cyclopropane]-5,6-dicarboxamide] |  |  | 0.051 | 0.79 | > 10 | 
3 | CSc1ccc(NC(=O)C2C(C(N)=O)C3C=CC2C32CC2)cc1 (racemic) [Compound 49, (+/−)-(1R,4S,5R,6S)—N-5-(4-(Methylthio)phenyl)spiro[bicyclo[2.2.1]hept[2]ene-7,1′-cyclopropane]-5,6-dicarboxamide] |  |  | 0.097 | 0.90 | > 10 | 
4 | NC(=O)C1C(C(=O)Nc2ccc(I)cc2)C2C=CC1C21CC1 (racemic) [Compound 50, (+/−)-(1R,4S,5R,6S)—N-5-(4-Iodophenyl)spiro[bicyclo[2.2.1]hept[2]ene-7,1′-cyclopropane]-5,6-dicarboxamide] |  |  | 0.0018 | 0.85 | > 10 | 
5 | NC(=O)[C@@H]1[C@H](C(=O)Nc2ccc(I)cc2)[C@@H]2CC[C@H]1C21CC1 (racemic) [Compound 51, (+/−)-(1S,2R,3S,4R)—N2-(4-Iodophenyl)spiro[bicyclo[2.2.1]heptane-7,1′-cyclopropane]-2,3-dicarboxamide] |  |  | < 0.0048 | 0.87 | > 10 | 
6 | CCc1ccc(NC(=O)[C@H]2[C@@H](C(N)=O)[C@H]3CC[C@@H]2C32CC2)cc1 (racemic) [Compound 52, (+/−)-(1S,2R,3S,4R)—N^2-(4-Ethylphenyl)spiro[bicyclo[2.2.1]heptane-7,1′-cyclopropane]-2,3-dicarboxamide] |  |  | 0.033 | 0.97 | > 10 | 
7 | CSc1ccc(NC(=O)[C@H]2[C@@H](C(N)=O)[C@H]3CC[C@@H]2C32CC2)cc1 (racemic) [Compound 53, (+/−)-(1S,2R,3S,4R)—N2-(4-(Methylthio)phenyl)spiro[bicyclo[2.2.1]heptane-7,1′-cyclopropane]-2,3-dicarboxamide] |  |  | 0.015 | 0.86 | > 10 | 
8 | CC1(C)[C@@H]2CC[C@H]1[C@@H](C(=O)Nc1ccc(I)cc1)[C@H]2C(N)=O (racemic) [Compound 55, (+/−)-(1S,2R,3S,4R)—N2-(4-Iodophenyl)-7,7-dimethylbicyclo[2.2.1]heptane-2,3-dicarboxamide] |  |  |  | 0.81 | > 10 | 
9 | CSc1ccc(NC(=O)[C@H]2[C@@H](C(N)=O)[C@H]3CC[C@@H]2C3(C)C)cc1 (racemic) [Compound 56, (+/−)-(1S,2R,3S,4R)-7,7-Dimethyl-N2-(4-(methylthio)phenyl)bicyclo[2.2.1]heptane-2,3-dicarboxamide] |  |  |  | ND (0.96) | > 10 | 
10 | CCc1ccc(NC(=O)[C@H]2[C@@H](C(N)=O)[C@H]3CC[C@@H]2C3(C)C)cc1 (racemic) [Compound 57, (+/−)-(1S,2R,3S,4R)—N2-(4-Ethylphenyl)-7,7-dimethylbicyclo[2.2.1]heptane-2,3-dicarboxamide] |  |  | 0.035 | 0.95 | > 10 | 
11 | O=C(Nc1ccc(Br)cc1)C1C(CO)C2C=CC1C21CC1 (racemic) [Compound 58, (+/−)-(1R,4S,5R,6S)—N-(4-Bromophenyl)-6-(hydroxymethyl)spiro[bicyclo[2.2.1]-hept[2]ene-7,1′-cyclopropane]-5-carboxamide] |  |  | 0.229 | 0.91 | > 10 | 
12 | O=C(Nc1ccc(Br)cc1)[C@H]1[C@@H](CO)[C@H]2CC[C@@H]1C21CC1 (racemic) [Compound 59, (+/−)-(1S,2R,3S,4R)—N-(4-Bromophenyl)-3-(hydroxymethyl)spiro[bicyclo[2.2.1]-heptane-7,1′-cyclopropane]-2-carboxamide] |  |  |  | 0.76 | > 10 | > 10
